# In PubChem BioAssay AID256 (DTP/NCI, 2004):
# Where “and” joins values, the source holds several entries; their conditions need not be identical. Equal values may be shown once. Toxic doses and inconclusive results are not listed.
# Test system: CD2F1 mice, L1210 leukemia ip, survival T/C
# Assay: NCI In Vivo Anticancer Drug Screen. Data for tumor model L1210 Leukemia (intraperitoneal) in CD2F1 (CDF1) mice
# Conditions: higher = longer survival
# Summary of the method: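 Ratio T/C, where T is the treated-group value and C the vehicle-dosed control value, from mice implanted with a transplantable tumor.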
# [1] = endpoint: mean survival time, dose: 100.0 mg/kg/injection, schedule: Q04DX002 (ip), vehicle: saline with Tween-80
# [2] = endpoint: mean survival time, dose: 200.0 mg/kg/injection, schedule: Q04DX002 (ip), vehicle: saline with Tween-80
# [3] = endpoint: mean survival time, dose: 100.0 mg/kg/injection, schedule: Q04DX003 (ip), vehicle: saline with Tween-80
# [4] = endpoint: mean survival time, dose: 200.0 mg/kg/injection, schedule: Q04DX003 (ip), vehicle: saline with Tween-80
# [5] = endpoint: mean survival time, dose: 400.0 mg/kg/injection, schedule: Q04DX003 (ip), vehicle: saline with Tween-80
# [6] = endpoint: mean survival time, dose: 100.0 mg/kg/injection, schedule: Q01DX009 (ip), vehicle: saline with Tween-80
# [7] = endpoint: mean survival time, dose: 200.0 mg/kg/injection, schedule: Q01DX009 (ip), vehicle: saline with Tween-80
# [8] = endpoint: mean survival time, dose: 400.0 mg/kg/injection, schedule: Q01DX009 (ip), vehicle: saline with Tween-80
# [9] = endpoint: mean survival time, dose: 100.0 mg/kg/injection, schedule: Q04DX003 (ip), vehicle: saline
# [10] = endpoint: mean survival time, dose: 200.0 mg/kg/injection, schedule: Q04DX003 (ip), vehicle: saline
# [11] = endpoint: mean survival time, dose: 400.0 mg/kg/injection, schedule: Q04DX003 (ip), vehicle: saline
# [12] = endpoint: mean survival time, dose: 100.0 mg/kg/injection, schedule: Q01DX001 (ip), vehicle: saline with Tween-80
# [13] = endpoint: mean survival time, dose: 200.0 mg/kg/injection, schedule: Q01DX001 (ip), vehicle: saline with Tween-80
# [14] = endpoint: mean survival time, dose: 400.0 mg/kg/injection, schedule: Q01DX001 (ip), vehicle: saline with Tween-80
structure (smiles),measurement,setting,value
CC(=O)Nc1nc(Br)c2ccccc2c1-c1ccc(N(CCOS(=O)(=O)c2ccc(C)cc2)CCOS(=O)(=O)c2ccc(C)cc2)cc1,T/C,"endpoint: mean survival time, dose: 12.5 mg/kg/injection, schedule: Q04DX003 (ip), vehicle: DMSO",98 % of control
same,T/C,"endpoint: mean survival time, dose: 25.0 mg/kg/injection, schedule: Q04DX003 (ip), vehicle: DMSO",102 % of control
same,T/C,"endpoint: mean survival time, dose: 50.0 mg/kg/injection, schedule: Q04DX003 (ip), vehicle: DMSO",102 % of control
same,T/C,"endpoint: mean survival time, dose: 100.0 mg/kg/injection, schedule: Q04DX003 (ip), vehicle: DMSO",105 % of control
Nc1ncnc2c1nc(Br)n2C1OC(CO)C(O)C1O (stereo not drawn),T/C,[1],95 % of control
same,T/C,[2],98 % of control
same,T/C,"endpoint: mean survival time, dose: 400.0 mg/kg/injection, schedule: Q04DX002 (ip), vehicle: saline with Tween-80",98 % of control
CCCCOC(=S)S.[Zn+2],T/C,[3],94 % of control
same,T/C,[4],108 % of control
same,T/C,[5],89 % of control
NCCC(O)C(=O)NC1CC(N)C(OC2OC(CN)C(O)C(O)C2O)C(O)C1OC1OC(CO)C(O)C(N)C1O (stereo not drawn),T/C,"endpoint: mean survival time, dose: 10.0 mg/kg/injection, schedule: Q04DX003 (ip), vehicle: saline",95 % of control
same,T/C,"endpoint: mean survival time, dose: 20.0 mg/kg/injection, schedule: Q04DX003 (ip), vehicle: saline",90 % of control
same,T/C,"endpoint: mean survival time, dose: 40.0 mg/kg/injection, schedule: Q04DX003 (ip), vehicle: saline",93 % of control
Cc1cccc(Cl)c1NC(=O)CCCl,T/C,[3],97 % of control
same,T/C,[4],106 % of control
same,T/C,[5],98 % of control
CCCCCCCC(=O)Nc1ccc(C)cc1C,T/C,[6],91 % of control
same,T/C,[7],98 % of control
same,T/C,[8],91 % of control
OCC1OC(Oc2ccccc2)C(O)C1O (stereo not drawn),T/C,"endpoint: mean survival time, dose: 75.0 mg/kg/injection, schedule: Q01DX001 (ip), vehicle: saline",93 % of control
same,T/C,"endpoint: mean survival time, dose: 150.0 mg/kg/injection, schedule: Q01DX001 (ip), vehicle: saline",98 % of control
same,T/C,"endpoint: mean survival time, dose: 300.0 mg/kg/injection, schedule: Q01DX001 (ip), vehicle: saline",98 % of control
CNC(=O)OC,T/C,[9],102 % of control
same,T/C,[10],110 % of control
same,T/C,[11],108 % of control
COc1c(NC(=O)Nc2cccc(Cl)c2)cccc1[N+](=O)[O-],T/C,[1],92 % of control
same,T/C,[2],88 % of control
COC(=O)C(CSC(c1ccccc1)(c1ccccc1)c1ccccc1)NC(=O)CCNC(=O)OCc1ccccc1 (stereo not drawn),T/C,"endpoint: mean survival time, dose: 12.5 mg/kg/injection, schedule: Q01DX009 (ip), vehicle: water",93 % of control
same,T/C,"endpoint: mean survival time, dose: 25.0 mg/kg/injection, schedule: Q01DX009 (ip), vehicle: water",91 % of control
same,T/C,"endpoint: mean survival time, dose: 50.0 mg/kg/injection, schedule: Q01DX009 (ip), vehicle: water",90 % of control
same,T/C,"endpoint: mean survival time, dose: 100.0 mg/kg/injection, schedule: Q01DX009 (ip), vehicle: water",90 % of control
O=S(=O)(O)SCCN1CCCC1,T/C,"endpoint: mean survival time, dose: 12.5 mg/kg/injection, schedule: Q01DX009 (ip), vehicle: saline",107 % of control
same,T/C,"endpoint: mean survival time, dose: 12.5 mg/kg/injection, schedule: Q04DX003 (ip), vehicle: saline sonified",101 % of control
same,T/C,"endpoint: mean survival time, dose: 25.0 mg/kg/injection, schedule: Q01DX009 (ip), vehicle: saline",104 % of control
same,T/C,"endpoint: mean survival time, dose: 25.0 mg/kg/injection, schedule: Q04DX003 (ip), vehicle: saline sonified",98 % of control
same,T/C,"endpoint: mean survival time, dose: 50.0 mg/kg/injection, schedule: Q01DX009 (ip), vehicle: saline",102 % of control
same,T/C,"endpoint: mean survival time, dose: 50.0 mg/kg/injection, schedule: Q04DX003 (ip), vehicle: saline sonified",96 % of control
CC(=O)NNC(=O)c1ccccc1CO,T/C,"endpoint: mean survival time, dose: 12.5 mg/kg/injection, schedule: Q01DX009 (ip), vehicle: other",89 % of control
same,T/C,"endpoint: mean survival time, dose: 25.0 mg/kg/injection, schedule: Q01DX009 (ip), vehicle: other",90 % of control
same,T/C,"endpoint: mean survival time, dose: 50.0 mg/kg/injection, schedule: Q01DX009 (ip), vehicle: other",97 % of control
same,T/C,"endpoint: mean survival time, dose: 100.0 mg/kg/injection, schedule: Q01DX009 (ip), vehicle: other",94 % of control
same,T/C,"endpoint: mean survival time, dose: 200.0 mg/kg/injection, schedule: Q01DX009 (ip), vehicle: other",101 % of control
CC1=CC(=O)C=C/C1=N/S(=O)(=O)c1ccccc1,T/C,"endpoint: mean survival time, dose: 25.0 mg/kg/injection, schedule: Q01DX001 (ip), vehicle: saline with Tween-80",93 % of control
same,T/C,"endpoint: mean survival time, dose: 50.0 mg/kg/injection, schedule: Q01DX001 (ip), vehicle: saline with Tween-80",90 % of control
same,T/C,[12],97 % of control
BrC=C=C1CCCCC1,T/C,[3],95 % of control
same,T/C,[4],93 % of control
same,T/C,[5],97 % of control
O=S1(=O)c2ccccc2C(=NO)c2ccccc21,T/C,[9],92 % of control
same,T/C,[10],96 % of control
same,T/C,[11],106 % of control
O=C(N/N=C\c1ccc(Cl)cc1)C(=O)N/N=C\c1ccc(Cl)cc1,T/C,[12],106 % of control
same,T/C,[13],92 % of control
same,T/C,[14],89 % of control
CC(=O)Nc1ccccc1-c1ccccc1,T/C,[6],96 % of control
same,T/C,[3],92 % of control
same,T/C,[7],104 % of control
same,T/C,[4],95 % of control
same,T/C,[8],103 % of control
same,T/C,[5],94 % of control
CC(C)C1(C(C)C)OCCO1,T/C,"endpoint: mean survival time, dose: 50.0 mg/kg/injection, schedule: Q01DX009 (ip), vehicle: saline with Tween-80",98 % of control
same,T/C,[6],93 % of control
same,T/C,[3],97 % of control
same,T/C,[7],95 % of control
same,T/C,[4],88 % of control
NC(=O)c1[nH]cnc1NN=NCCF,T/C,"endpoint: mean survival time, dose: 25.0 mg/kg/injection, schedule: Q01DX001 (ip), vehicle: Klucel (hydroxypropylcellulose) (HPC)",320 % of control
CC(C(=O)c1cc(O)c(O)cc1C(O)(C(F)(F)F)C(F)(F)F)C(O)(C(F)(F)F)C(F)(F)F (stereo not drawn),T/C,[6],94 % of control
same,T/C,[7],94 % of control
same,T/C,[8],94 % of control
CCOC1CS(=O)(=O)CC(OCC)O1 (stereo not drawn),T/C,[3],101 % of control
same,T/C,[4],109 % of control
same,T/C,[5],101 % of control
CCCC[P+](CO)(CCCC)CCCC,T/C,"endpoint: mean survival time, dose: 7.5 mg/kg/injection, schedule: Q04DX003 (ip), vehicle: saline",103 % of control
same,T/C,"endpoint: mean survival time, dose: 15.0 mg/kg/injection, schedule: Q04DX003 (ip), vehicle: saline",98 % of control
same,T/C,"endpoint: mean survival time, dose: 30.0 mg/kg/injection, schedule: Q04DX003 (ip), vehicle: saline",101 % of control
O=c1[nH]c(Cc2ccccc2)c(N=Nc2ccccc2)c(=O)[nH]1,T/C,[13],90 % of control
same,T/C,[14],89 % of control
S=c1nccc[nH]1.[Pt],T/C,"endpoint: mean survival time, dose: 3.13 mg/kg/injection, schedule: Q04DX003 (ip), vehicle: distilled water + Tween-80",98 % of control
same,T/C,"endpoint: mean survival time, dose: 6.25 mg/kg/injection, schedule: Q04DX003 (ip), vehicle: distilled water + Tween-80",103 % of control
same,T/C,"endpoint: mean survival time, dose: 12.5 mg/kg/injection, schedule: Q04DX003 (ip), vehicle: distilled water + Tween-80",98 % of control
same,T/C,"endpoint: mean survival time, dose: 25.0 mg/kg/injection, schedule: Q04DX003 (ip), vehicle: distilled water + Tween-80",97 % of control
same,T/C,"endpoint: mean survival time, dose: 50.0 mg/kg/injection, schedule: Q04DX003 (ip), vehicle: distilled water + Tween-80",90 % of control
same,T/C,"endpoint: mean survival time, dose: 100.0 mg/kg/injection, schedule: Q04DX003 (ip), vehicle: distilled water + Tween-80",98 % of control
same,T/C,"endpoint: mean survival time, dose: 200.0 mg/kg/injection, schedule: Q04DX003 (ip), vehicle: distilled water + Tween-80",98 % of control
O=C(O)CO.[NH2-].[NH2-].[Pt+2],T/C,"endpoint: median survival time, dose: 20.0 mg/kg/injection, schedule: Q04DX003 (ip), vehicle: saline",192 % of control and 238 % of control
same,T/C,"endpoint: median survival time, dose: 40.0 mg/kg/injection, schedule: Q04DX003 (ip), vehicle: saline",182 % of control and 340 % of control
same,T/C,"endpoint: median survival time, dose: 80.0 mg/kg/injection, schedule: Q04DX003 (ip), vehicle: saline",98 % of control and 102 % of control
O=Cc1c2ccccc2cc2ccccc12,T/C,"endpoint: mean survival time, dose: 89.0 mg/kg/injection, schedule: Q01DX001 (ip), vehicle: saline",170 % of control
same,T/C,"endpoint: mean survival time, dose: 133.0 mg/kg/injection, schedule: Q01DX001 (ip), vehicle: saline",167 % of control
same,T/C,"endpoint: mean survival time, dose: 200.0 mg/kg/injection, schedule: Q01DX001 (ip), vehicle: saline",162 % of control
CC(=O)N1c2cc3ccccc3cc2N(C(C)=O)c2cc3ccccc3cc21,T/C,[3],103 % of control
same,T/C,[4],103 % of control
same,T/C,[5],107 % of control
